Results taken from the NIST ThermoML archive (doi:10.1016/j.fluid.2014.11.020).
Numbers after ± are expanded uncertainties.

Assay: activity coefficient (dimensionless); of the first substance listed, at infinite dilution; xn = mol fraction of the nth substance listed
Conditions: Liquid, Chromatography, x1 = 0

Structure (SMILES)	activity coefficient (323.15 K)	activity coefficient (333.15 K)	activity coefficient (343.15 K)
Cc1cccc(C)c1 [1,3-dimethylbenzene] + CCCOC[n+]1ccn(C)c1.F[B-](F)(F)F	11 ± 0.75	10.8 ± 0.74	10.7 ± 0.73
CCN(CC)CC [triethylamine] + CCCCCCCCn1cc[n+](COCCC)c1C.O=S(=O)([N-]S(=O)(=O)C(F)(F)F)C(F)(F)F	1.2 ± 0.08		
Cc1ccc(C)cc1 [1,4-dimethylbenzene] + CCCOC[n+]1ccn(C)c1.N#C[N-]C#N	5.98 ± 0.41	6.03 ± 0.41	6.05 ± 0.41
CC1CCCC1 [methylcyclopentane] + CCCCCCCCn1cc[n+](COCCCOC[n+]2ccn(CCCCCCCC)c2C)c1C.O=S(=O)([N-]S(=O)(=O)C(F)(F)F)C(F)(F)F.O=S(=O)([N-]S(=O)(=O)C(F)(F)F)C(F)(F)F	2.52 ± 0.17	2.23 ± 0.15	2.17 ± 0.15
CC(C)CO [2-methyl-1-propanol] + CCCOC[n+]1ccn(C)c1.F[B-](F)(F)F	4.35 ± 0.3	3.95 ± 0.27	3.56 ± 0.24
CO [methanol] + CN(C)c1cc[n+](COCCCOC[n+]2ccc(N(C)C)cc2)cc1.O=S(=O)([N-]S(=O)(=O)C(F)(F)F)C(F)(F)F.O=S(=O)([N-]S(=O)(=O)C(F)(F)F)C(F)(F)F	0.91 ± 0.06	0.86 ± 0.06	0.79 ± 0.05
c1ccccc1 [benzene] + Cn1cc[n+](COCCCOC[n+]2ccn(C)c2)c1.N#C[N-]C#N.N#C[N-]C#N	3.03 ± 0.21	3.05 ± 0.21	3.08 ± 0.21
C=CCCCC [hex-1-ene] + CCCOC[n+]1ccn(C)c1.N#C[N-]C#N	28 ± 1.9		
Cc1ccc(C)cc1 [1,4-dimethylbenzene] + CCCOC[n+]1ccc(N(C)C)cc1.O=S(=O)([N-]S(=O)(=O)C(F)(F)F)C(F)(F)F	1.38 ± 0.09	1.45 ± 0.1	1.45 ± 0.1
CCCC(C)=O [pentan-2-one] + CCCCCCCCn1cc[n+](COCCCOC[n+]2ccn(CCCCCCCC)c2C)c1C.N#C[N-]C#N.N#C[N-]C#N	0.8 ± 0.05	0.8 ± 0.05	0.81 ± 0.05
CC#N [acetonitrile] + CCCOC[n+]1ccn(C)c1.N#C[N-]C#N	0.77 ± 0.05	0.78 ± 0.05	1.09 ± 0.07
CCCCCCC [heptane] + CCCOC[n+]1ccn(Cc2ccccc2)c1.N#C[N-]C#N	48 ± 3.3	44.9 ± 3.1	41.8 ± 2.9
